Test results from patent publication US10851099B2, “Dipeptide piperidine derivatives” (OncoArendi Therapeutics S.A., priority 2018, dated 2020).
Structures can show the parent of a compound that is named as a salt.

Experiments:
[1] = target: T1, recombinant human arginase 1 (Homo sapiens, UniProt P05089); test: Human arginase inhibition assay (colorimetric urea detection), arginase 1; type: biochemical; conditions: IC50 class, hydrochloride salts, 1 h at 37° C., pH 7.4, 10 mM L-arginine, 200 μM MnCl2, read-out: Activity Class (ARG I)
T1 construct: made in house; host or cells: E. coli
T1 sequence (P05089 1-322): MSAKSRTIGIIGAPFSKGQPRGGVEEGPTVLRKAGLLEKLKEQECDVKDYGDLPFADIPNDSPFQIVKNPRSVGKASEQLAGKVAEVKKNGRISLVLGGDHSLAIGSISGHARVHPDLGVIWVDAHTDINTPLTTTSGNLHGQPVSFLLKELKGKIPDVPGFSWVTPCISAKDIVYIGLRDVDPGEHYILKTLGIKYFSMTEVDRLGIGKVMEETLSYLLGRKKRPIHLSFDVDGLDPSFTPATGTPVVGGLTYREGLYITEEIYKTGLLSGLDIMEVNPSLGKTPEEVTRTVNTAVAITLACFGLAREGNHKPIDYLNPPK
Procedure: (§1) The inhibitory activities of the compounds of the invention were assessed using recombinant human arginase 1 and 2. Both enzymes were biosynthesized using a prokaryotic expression system (E. coli) and purified by fast protein liquid chromatography (FPLC). The compounds were screened in 96-well plates at the total reaction volume of 100 μL. Briefly, recombinant enzymes were incubated with the tested compounds for 1 h at 37° C. in the reaction buffer (100 mM sodium phosphate buffer, 130 mM NaCl, 1 mg/mL BSA, pH 7.4) containing substrate (10 mM L-arginine hydrochloride) and cofactor (200 μM MnCl2). The assay is based on the detection of urea, which is generated during the conversion of L-arginine into L-ornithine catalyzed by ARG1 or ARG2. The colorimetrically detectable product was developed by adding a mixture of reagent A (4 mM oPA, 50 mM boric acid, 1 M sulfuric acid, 0.03% Brij-35) and reagent B (4 mM NED, 50 mM boric acid, 1 M sulfuric acid, 0.03% Brij-35) in equal proportions. The absorbance for each well was measured at 515 nm and the enzyme inhibition was calculated. The urea production in the absence of any tested compound was considered as maximal enzyme activity. The absorbance at the absence of arginase (background) was subtracted from all the values. Normalized values were analyzed using GraphPad Prism 7.0 software by plotting inhibition curves and determining the IC50 values.
(§2) The inhibitory activity toward humane arginase 1 of the hydrochloride salts of the exemplary compounds according to the invention is presented in Table 5.

[2] = target: T2, recombinant human arginase 2 (Homo sapiens, UniProt P78540); test: Human arginase inhibition assay (colorimetric urea detection), arginase 2; type: biochemical; conditions: IC50 class, hydrochloride salts, 1 h at 37° C., pH 7.4, 10 mM L-arginine, 200 μM MnCl2, read-out: Activity Class (ARG II)
T2 construct: made in house; host or cells: E. coli
T2 sequence (P78540 23-354): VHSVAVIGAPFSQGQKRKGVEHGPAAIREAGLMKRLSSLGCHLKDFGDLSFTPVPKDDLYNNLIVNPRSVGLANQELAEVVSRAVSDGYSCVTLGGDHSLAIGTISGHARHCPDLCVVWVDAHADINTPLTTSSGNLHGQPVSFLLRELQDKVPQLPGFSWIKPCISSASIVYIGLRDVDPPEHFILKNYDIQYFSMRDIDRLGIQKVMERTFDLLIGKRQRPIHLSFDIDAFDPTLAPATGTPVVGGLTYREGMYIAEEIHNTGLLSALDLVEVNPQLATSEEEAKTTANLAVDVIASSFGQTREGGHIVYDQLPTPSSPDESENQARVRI
Procedure: as §1, §2
The inhibitory activity toward humane arginase 2 of the hydrochloride salts of the selected exemplary compounds according to the invention is presented in Table 6.

| IC50 [1] | IC50 [2] | Compound |
| --- | --- | --- |
| 1 to 249 nM | 500 to 999 nM | NCCCC[C@H](N)C(=O)N1C[C@@H](CCB(O)O)C[C@](N)(C(=O)O)C1 [Example 7, (3R,5S)-1-(L-Lysyl)-3-amino-5-(2-boronoethyl)piperidine-3-carboxylic acid trihydrochloride] |
| 1 to 249 nM | 1000 to 10000 nM | N[C@@H](Cc1ccccc1)C(=O)N1C[C@@H](CCB(O)O)C[C@](N)(C(=O)O)C1 [Example 11, (3R,5S)-1-(L-Phenylalanyl)-3-amino-5-(2-boronoethyl)piperidine-3-carboxylic acid dihydrochloride] |
| 1 to 249 nM | 500 to 999 nM | N[C@@H](Cc1c[nH]cn1)C(=O)N1C[C@@H](CCB(O)O)C[C@](N)(C(=O)O)C1 [Example 13, (3R,5S)-1-(L-Histidyl)-3-amino-5-(2-boronoethyl)piperidine-3-carboxylic acid trihydrochloride] |
| 1 to 249 nM | 250 to 499 nM | N=C(N)NCCC[C@H](N)C(=O)N1C[C@@H](CCB(O)O)C[C@](N)(C(=O)O)C1 [Example 20, (3R,5S)-1-(L-Arginyl)-3-amino-5-(2-boronoethyl)piperidine-3-carboxylic acid trihydrochloride] |
| 1 to 249 nM | 500 to 999 nM | C[C@H](N)C(=O)N1C[C@@H](CCB(O)O)C[C@](N)(C(=O)O)[C@@H]1C [Example 30, (2S,3R,5S)-1-(L-alanyl)-3-amino-5-(2-boronoethyl)-2-methylpiperidine-3-carboxylic acid dihydrochloride] |
